The nature of the first data set: method code SF-AS, from DOI: 10.1016/0378-5173(82)90004-7. Conditions: pH 3.0.
A word on the logD: it is the decadic logarithm of the distribution of all forms, ionised or not, between an organic phase and buffer at a given pH. Low values mean lower lipophilicity, high ones higher lipophilicity. The compound `CCC1(C)C(=O)NC(=O)NC1=O` came in with a logD of 0.08.

The compound `C=CCC1(C)C(=O)NC(=O)NC1=O` returned a log distribution coefficient (logD) of 0.36.

`O=C1NC(=O)C(c2ccccc2)(c2ccccc2)C(=O)N1` registered a logD of 1.96.

Compound `CC1(c2ccccc2)C(=O)NC(=O)NC1=O` returned a logD of 0.91.

Test in the next data set: not given
Conditions: not given
Usually logP stands for the decadic logarithm of the partition coefficient of the neutral form, usually between octanol and water. Low values mean a more hydrophilic compound, high ones a more lipophilic compound. For the compound `COP(=S)(OC)Oc1nc(Cl)c(Cl)cc1Cl`, the logP was determined as 3.99.

Compound `CN(C)C(=O)Nc1ccccc1` had a lipophilicity (logP) of 1.18.

Consider `CCOC(=O)CC(SP(=S)(OC)OC)C(=O)OCC` (stereo unspecified), for which the logP was 2.18.

The compound `CCN(CC)c1nc(C)cc(OP(=S)(OC)OC)n1` registered a logP of 3.8.

Test in the next data set: not given
Conditions: not given
The source holds these as a separate data set.
Compound `CCNc1nc(Cl)nc(NC(C)C)n1` registered a logP of 2.63.

In the case of `ClC(Cl)=C(Cl)c1c(Cl)c(Cl)c(Cl)c(Cl)c1Cl`, the log partition coefficient (logP) came to 6.29.

`Clc1ccc2c(ccc3ccccc32)c1` returned a logP of 5.16.

`COc1c(Br)cc(Br)cc1Br` yielded a logP of 4.48.

The next data set in a line: method code SF, from DOI: 10.1021/jm00378a018, PMID: 6389865. Conditions: pH 7.0.
As to `O=[N+]([O-])c1cnc(NC(CO)C(O)CO)cn1` (stereo unspecified), the logD is -0.89.

Regarding `Nc1nc(NCCO)c(Cl)nc1[N+](=O)[O-]`, the logD amounted to 0.12.

Compound `O=[N+]([O-])c1nccnc1NCC(O)CO` (stereo unspecified) gave a logD of -0.49.

Compound `COC(=O)c1nc(NCC(O)CO)cnc1[N+](=O)[O-]` (stereo unspecified) returned a logD of -0.1.

A short description of another data set: method code SF-HPLC, from DOI: 10.1016/0378-5173(82)90005-9. Conditions: pH 3.0.
Regarding `O=C1NC(=O)C2(CCCC2)C(=O)N1`, the logD was 0.24.

For `O=C1NC(=O)C2(CC2)C(=O)N1`, the logD was -0.53.

With `O=C1NC(=O)C2(CCCCC2)C(=O)N1`, the log distribution coefficient (logD) amounted to 0.91.

`O=C1NC(=O)C2(CCCCCCCCCC2)C(=O)N1` returned a logD of 3.15.

Test in a further data set: not given
Conditions: not given
This is another data set of the same source.
In turn, `COc1ccc(OC)cc1` yielded a lipophilicity (logP) of 2.03.

For `COc1ccc(N)c([N+](=O)[O-])c1`, the logP was 1.86.

The compound `Cc1ccc(Cl)cc1O` came in with a logP of 2.63.

For `COc1cccc(Cl)c1`, the logP amounted to 2.98.

Test in a further data set: not given
Conditions: not given
This is another data set of the same source.
The compound `C[C@@H]1CCCC[C@H]1O` gave a log partition coefficient (logP) of 1.82.

For `CCCC(O)CC` (stereo unspecified), the logP was 1.65.

Take `CC1CCCC(C)C1O` (stereo unspecified): the logP is 2.37.

`CCCCCCC(C)O` (stereo unspecified) displayed a logP of 2.9.

Test in the next data set: not given
Conditions: not given
The source holds these as a separate data set.
The compound `CN1CC(C(=O)O)CC1=O` (stereo unspecified) yielded a logP of -1.5.

Take `CCCCCCN1CC(C(=O)O)CC1=O` (stereo unspecified): the lipophilicity (logP) was determined as 1.6.

For `CCCCCCN1CCCC1=O`, the logP turned out to be 2.6.

In turn, `CCCCCCCCCCCCN1CC(C(=O)OC)CC1=O` (stereo unspecified) registered a logP of 4.

Another data set in a line: method code SF-GLC, from DOI: 10.1016/s0021-9673(01)83612-8. Conditions: pH 13.0.
Take `CC(N)CC1CCCCC1` (stereo unspecified): the logD worked out at 2.96.

With `CC1Cc2ccccc2CN1` (stereo unspecified), the logD amounted to 1.93.

In turn, `CCCCCC(C)N` (stereo unspecified) came in with a logD of 2.4.

`CNC1CCc2ccccc2C1` (stereo unspecified): the logD came out at 2.38.

Test in a further data set: not given
Conditions: not given
This is another data set of the same source.
Compound `Nc1ccc(Cl)cc1N` registered a logP of 1.28.

`Nc1ccc(Sc2ccccc2)cc1` came in with a logP of 2.18.

In turn, `COc1ccc(C)cc1N` had a logP of 1.74.

In turn, `Nc1cccc2cccnc12` displayed a logP of 1.79.

The nature of the next data set: method code SF-CR+AS, from DOI: 10.1016/s0003-2670(00)84151-3.
Conditions: not given
On to `Cc1ccc(C(N)=S)cc1`, for which the logP worked out at 2.01.

Consider `NC(=S)c1ccc([N+](=O)[O-])cc1`, for which the logP turned out to be 1.75.

In turn, `NC(=S)c1ccc(Cl)cc1` returned a logP of 2.4.

Regarding `COc1ccc(C(N)=S)cc1`, the logP amounted to 1.63.

A further data set can be described thus: method code SF, from DOI: 10.1002/em.2850190108, PMID: 1732104.
Conditions: not given
Turning to `O=[N+]([O-])c1cc([N+](=O)[O-])c2ccccc2c1`, the logP came to 2.83.

`O=[N+]([O-])c1ccc2c3c(cccc13)CC2` displayed a logP of 3.85.

In turn, `O=C1Nc2ccc([N+](=O)[O-])cc2C1=O` returned a logP of 0.47.

`Cc1ccc2cccc([N+](=O)[O-])c2n1` had a logP of 1.99.

The next data set in a line: method code SF-AS, from DOI: 10.1002/1521-3838(200111)20:4<291::aid-qsar291>3.0.co;2-q.
Conditions: not given
`Oc1ccccc1-c1n[nH]c(=S)o1` registered a logP of 2.42.

The compound `S=c1[nH]nc(-c2ccc(Cl)cc2)o1` gave a logP of 3.66.

In the case of `Cc1ccc(-c2n[nH]c(=S)o2)cc1`, the logP came out at 3.44.

For the compound `S=c1[nH]nc(-c2ccccc2Cl)o1`, the log partition coefficient (logP) stood at 3.36.

The next data set can be described thus: method code SF-AS, from DOI: 10.1007/bf02922495.
Conditions: not given
In turn, `N#CC(C#N)=Cc1ccco1` registered a logP of 1.5.

For the compound `COC(=O)/C(C#N)=C/c1ccco1`, the logP was determined as 1.75.

In turn, `COC(=O)C(C#N)=Cc1ccc(Cl)o1` returned a logP of 2.4.

`N#CC(C#N)=Cc1ccc(Cl)o1` yielded a logP of 2.17.
